In brackets after ≈: the same amount, converted by molar mass. *1 amine or outer side, *2 acyl side, *3 side chain or, on linkers, in order; H or OH if unused. Where a SMILES comes first, the peptide text is derived from it. Bridges are numbered along the chain shown (N, C = ends). [ ]: non-standard residue; d: D form. The star is where a group is joined. pTerphenylCO(4''-OnC5H11) = CCCCCOc1ccc(-c2ccc(-c3ccc(C(=O)*)cc3)cc2)cc1; Orn(4R-OH,5R-OH) = O=C([C@H](C[C@@H](O)[C@@H](O)N[*:3])N[*:1])[*:2]; hTyr(3S-OH,4S-OH) = N[C@H](C(=O)O)[C@H](O)[C@@H](O)c1ccc(O)cc1; Pro(3S-OH,4S-Me) = C[C@H]1CN[C@H](C(=O)O)[C@H]1O; hTyr(3R-OH) = N[C@H](C(=O)O)[C@H](O)Cc1ccc(O)cc1; Hyp = O=C(O)[C@@H]1C[C@@H](O)CN1
What was measured:
[1] = test system: C. glabrata; assay: Minimum inhibitory concentration broth double-dilution assay; assay type: cell-based, Candida glabrata; details: for MIC: 24 h, 30 °C
Procedure: (§1) The antifungal activities of compounds 1 and 2 were evaluated against a panel of 50 strains of C. albicans and C. glabrata (Table S4), including echinocandin-resistant strains that were constructed by introducing mutations within and near the defined hotspots in the FKS1 and/or FKS2 genes.[27] To evaluate antifungal activity, we determined MIC values. The MIC was defined as the lowest drug concentration that led to turbidity (measured at 600 nm) of less than or equal to 35% of that of the untreated culture. As controls, we tested CSF, MCF, ANF, and RZF.
(§2) All of the tested compounds were dissolved in anhydrous DMSO to a concentration of 5 mg/mL. Candida strains were streaked from a glycerol stock onto YPAD agar plates and grown for 24 h at 30 °C. Colonies were suspended in 1 mL of PBS and diluted to an O.D. of 0.01 at 600 nm with YPAD broth and added into flat-bottom 96-well microplates (Corning) containing a gradient of twofold dilutions per tested compound with concentrations ranging from 64 to 0.0009 μg/mL. Control wells with no drug and blank wells without yeast cells containing YPAD only were also prepared. […] Each concentration was tested in triplicate, and results were confirmed by at least two independent sets of experiments.

[2] = test system: C. albicans; assay: as above; assay type: cell-based, Candida albicans; details: for MIC: 24 h, 30 °C
Procedure: as §1, §2

[3] = test system: SF-295; assay: cells; assay type: cell-based; details: Homo sapiens; SF-295 expressing GFP, 24 h, mean ± SD; read-out: IC50 (cell viability)
Procedure: (§3) In this analysis, we used HCT-116, a human colorectal carcinoma cell line; UACC-62, a human melanoma cell line; Hs 578T, a human mammary gland carcinoma cell line, and SF-295, a human glioblastoma cell line. […] The highest concentration of the echinocandins used for the cell viability tests was determined based on the reported maximal plasma concentrations (Cmax) of ANF and RZF measured in humans. A Cmax of approximately 7 μM was measured during a pharmacokinetic study of ANF in patients with candidemia or invasive candidiasis who were treated with a 200 mg loading dose on day 1, followed by a daily 100 mg maintenance dose.[64]
(§4) Human cell lines HCT-116, UACC-62, Hs 578T, and SF-295 were obtained from the Life Sciences Core Facilities of the Nancy & Stephen Grand Israel National Center for Personalized Medicine. Cell lines were grown in an RPMI medium (Gibco, cat. no. 21875-034) supplemented with 10% fetal calf serum (Biological Industries, cat. no. 04-007-1A), Pen/Strep (Biological Industries, cat. no. 03-031-1B), and glutamine (Biological Industries, cat. no. 03-020-1B). GFP was introduced into cells using TALENS according to a previously reported protocol.[73] GFP cells were selected by FACS and propagated.
(§5) Assay-ready plates were designed using in-house software (CHEMPION, INCPM software development team) and prepared in 384-well Greiner plates (cat. no. 781091) using an Echo 555 Acoustic Liquid Handler (Labcyte). The final DMSO concentration in all samples was 0.4%. Prior to the experiment, cells were trypsinized and counted using a Countess cytometer. Cells were then diluted to 40,000 cells/mL in a fresh medium. Cells (50 μL/well; 2000 cells/well) were then dispensed with a Thermo Combi dispenser into plates containing predispensed compounds. After 30 min at room temperature to ensure uniform adherence of cells, the plates were moved to an automated incubator (Liconic STX44) and incubated at 37 °C. An automated confocal microscope with a 4× S Fluor lens (Molecular Devices ImageExpress) was used to acquire images of GFP-expressing cells after 24 h of incubation. Images were then analyzed using MetaExpress with a custom protocol (Custom Module Editor), and data were annotated and normalized using Genedata Screener software. Final normalized data were then loaded into CDD Vault software for comparative data visualization.

[4] = test system: HCT-116; assay: cells; assay type: cell-based; details: Homo sapiens; HCT-116 expressing GFP, 24 h, mean ± SD; read-out: IC50 (cell viability)
Procedure: as §3, §4, §5

[5] = test system: UACC-62; assay: cells; assay type: cell-based; details: Homo sapiens; UACC-62 expressing GFP, 24 h, mean ± SD; read-out: IC50 (cell viability)
Procedure: as §3, §4, §5

[6] = test system: Hs 578T; assay: Phenotypic viability assay of GFP reporter cell line; assay type: cell-based; details: Homo sapiens; Hs 578T expressing GFP, 24 h, mean ± SD
Procedure: as §3, §4, §5

[7] = #2 C. albicans DPL1015 (DP-A15)
[8] = #3 C. albicans DPL1016 (DP-A15-10)

Compound: CCCCCOc1ccc(-c2ccc(-c3ccc(C(=O)N[C@H]4C[C@@H](O)[C@@H](O)NC(=O)[C@@H]5[C@@H](O)[C@@H](C)CN5C(=O)[C@H]([C@@H](C)O)NC(=O)[C@H]([C@H](O)[C@@H](O)c5ccc(O)cc5)NC(=O)[C@@H]5C[C@@H](O)CN5C(=O)[C@H]([C@@H](C)O)NC4=O)cc3)cc2)cc1 [ANF, anidulafungin] ({pTerphenylCO(4''-OnC5H11)}-[Orn(4R-OH,5R-OH)]T[Hyp][hTyr(3S-OH,4S-OH)]T[Pro(3S-OH,4S-Me)]; lactam 1-C)
- MIC ([1]; #9 C. glabrata EF1620): 0.008 µg/mL (≈ 0.00702 µM)
- MIC ([1]; #10 C. glabrata TGL00277): > 64 µg/mL
- MIC ([1]; #11 C. glabrata TGL00275): 4 µg/mL (≈ 3.51 µM)
- MIC ([1]; #12 C. glabrata CST78): 0.004 µg/mL (≈ 0.00351 µM)
- MIC ([1]; #13 C. glabrata TGL00265): 4 µg/mL (≈ 3.51 µM)
- MIC ([1]; #14 C. glabrata TGL00264): 32 µg/mL (≈ 28.1 µM)
- MIC ([1]; #15 C. glabrata TGL00263): 2 µg/mL (≈ 1.75 µM)
- MIC ([1]; #16 C. glabrata TGL00065): 8 µg/mL (≈ 7.02 µM)
- MIC ([1]; #17 C. glabrata CST34): 0.008 µg/mL (≈ 0.00702 µM)
- MIC ([1]; #18 C. glabrata TGL00258): > 64 µg/mL
- MIC ([1]; #19 C. glabrata TGL00256): 2 µg/mL (≈ 1.75 µM)
- MIC ([1]; #20 C. glabrata TGL00107): > 64 µg/mL
- MIC ([1]; #21 C. glabrata TGL00056): > 64 µg/mL
- MIC ([1]; #22 C. glabrata M12): 0.002 µg/mL (≈ 0.00175 µM)
- MIC ([1]; #23 C. glabrata TGL00270): 4 µg/mL (≈ 3.51 µM)
- MIC ([1]; #24 C. glabrata TGL00269): 0.25 µg/mL (≈ 0.219 µM)
- MIC ([1]; #25 C. glabrata TGL00268): > 64 µg/mL
- MIC ([1]; #26 C. glabrata TGL00268): > 64 µg/mL
- MIC ([1]; #27 C. glabrata EB0911): 0.004 µg/mL (≈ 0.00351 µM)
- MIC ([1]; #28 C. glabrata TGL00261): 2 µg/mL (≈ 1.75 µM)
- MIC ([1]; #29 C. glabrata TGL00109): > 64 µg/mL
- MIC ([1]; #30 C. glabrata TGL00259): 16 µg/mL (≈ 14 µM)
- MIC ([2]; #1 C. albicans Sc5314): 0.004 µg/mL (≈ 0.00351 µM)
- MIC [2, 7]: 0.063 µg/mL (≈ 0.0553 µM)
- MIC [2, 8]: 4 µg/mL (≈ 3.51 µM)
- MIC ([2]; #4 C. albicans T-2068 (DP-C42)): 2 µg/mL (≈ 1.75 µM)
- MIC ([2]; #5 C. albicans T-2069 (DP-85)): 2 µg/mL (≈ 1.75 µM)
- MIC ([2]; #6 C. albicans (DP-89)): 2 µg/mL (≈ 1.75 µM)
- MIC ([2]; #7 C. albicans T-2076 (DP-194)): 0.5 µg/mL (≈ 0.438 µM)
- MIC ([2]; #8 C. albicans T-2077 (DP-205)): 0.5 µg/mL (≈ 0.438 µM)
- IC50 [3]: 19.3 ± 1.97 µM
- IC50 [4]: > 40 µM
- IC50 [5]: 34.5 ± 4.15 µM
- IC50 [6]: > 40 µM

Compound: CCCCCOc1ccc(-c2ccc(-c3ccc(C(=O)N[C@H]4C[C@@H](O)[C@@H](O)NC(=O)[C@@H]5[C@@H](O)[C@@H](C)CN5C(=O)[C@H]([C@@H](C)O)NC(=O)[C@H]([C@H](O)Cc5ccc(O)cc5)NC(=O)[C@@H]5C[C@@H](O)CN5C(=O)[C@H]([C@@H](C)O)NC4=O)cc3)cc2)cc1 [Compound 1, dehydroxy-ANF] ({pTerphenylCO(4''-OnC5H11)}-[Orn(4R-OH,5R-OH)]T[Hyp][hTyr(3R-OH)]T[Pro(3S-OH,4S-Me)]; lactam 1-C)
- MIC ([1]; #9 C. glabrata EF1620): 0.004 µg/mL (≈ 0.00356 µM)
- MIC ([1]; #10 C. glabrata TGL00277): 8 µg/mL (≈ 7.12 µM)
- MIC ([1]; #11 C. glabrata TGL00275): 8 µg/mL (≈ 7.12 µM)
- MIC ([1]; #12 C. glabrata CST78): 0.002 µg/mL (≈ 0.00178 µM)
- MIC ([1]; #13 C. glabrata TGL00265): 1 µg/mL (≈ 0.889 µM)
- MIC ([1]; #14 C. glabrata TGL00264): > 64 µg/mL
- MIC ([1]; #15 C. glabrata TGL00263): 1 µg/mL (≈ 0.889 µM)
- MIC ([1]; #16 C. glabrata TGL00065): 16 µg/mL (≈ 14.2 µM)
- MIC ([1]; #17 C. glabrata CST34): 0.002 µg/mL (≈ 0.00178 µM)
- MIC ([1]; #18 C. glabrata TGL00258): 32 µg/mL (≈ 28.5 µM)
- MIC ([1]; #19 C. glabrata TGL00256): 0.25 µg/mL (≈ 0.222 µM)
- MIC ([1]; #20 C. glabrata TGL00107): > 64 µg/mL
- MIC ([1]; #21 C. glabrata TGL00056): > 64 µg/mL
- MIC ([1]; #22 C. glabrata M12): 0.002 µg/mL (≈ 0.00178 µM)
- MIC ([1]; #23 C. glabrata TGL00270): 1 µg/mL (≈ 0.889 µM)
- MIC ([1]; #24 C. glabrata TGL00269): 0.063 µg/mL (≈ 0.056 µM)
- MIC ([1]; #25 C. glabrata TGL00268): > 64 µg/mL
- MIC ([1]; #26 C. glabrata TGL00268): > 64 µg/mL
- MIC ([1]; #27 C. glabrata EB0911): 0.002 µg/mL (≈ 0.00178 µM)
- MIC ([1]; #28 C. glabrata TGL00261): 0.25 µg/mL (≈ 0.222 µM)
- MIC ([1]; #29 C. glabrata TGL00109): 64 µg/mL (≈ 56.9 µM)
- MIC ([1]; #30 C. glabrata TGL00259): 4 µg/mL (≈ 3.56 µM)
- MIC ([1]; #31 C. glabrata EF1237): 0.001 µg/mL (≈ 0.000889 µM)
- MIC ([1]; #36 C. glabrata F15): 0.002 µg/mL (≈ 0.00178 µM)
- MIC ([1]; #38 C. glabrata CBS138 (ATCC 2001)): 0.004 µg/mL (≈ 0.00356 µM)
- MIC ([1]; #41 C. glabrata P35_2): 0.002 µg/mL (≈ 0.00178 µM)
- MIC ([1]; #43 C. glabrata SLL2glab): 0.002 µg/mL (≈ 0.00178 µM)
- MIC ([1]; #46 C. glabrata BG2): 0.001 µg/mL (≈ 0.000889 µM)
- increase in potency on dehydroxylation of ANF (ratio MIC (ANF)/MIC (1)) ([1]; C. glabrata strain 28, Fks2 phenylalanine 659 deleted): 8 fold
- MIC ([2]; #1 C. albicans Sc5314): 0.008 µg/mL (≈ 0.00712 µM)
- MIC [2, 7]: 0.031 µg/mL (≈ 0.0276 µM)
- MIC [2, 8]: 1 µg/mL (≈ 0.889 µM)
- MIC ([2]; #4 C. albicans T-2068 (DP-C42)): 0.25 µg/mL (≈ 0.222 µM)
- MIC ([2]; #5 C. albicans T-2069 (DP-85)): 0.5 µg/mL (≈ 0.445 µM)
- MIC ([2]; #6 C. albicans (DP-89)): 1 µg/mL (≈ 0.889 µM)
- MIC ([2]; #7 C. albicans T-2076 (DP-194)): 0.5 µg/mL (≈ 0.445 µM)
- MIC ([2]; #8 C. albicans T-2077 (DP-205)): 0.125 µg/mL (≈ 0.111 µM)
- MIC difference between ANF and dehydroxy derivative 1 (ratio MIC (ANF)/MIC (1)) ([2]; C. albicans strain 4, Fks1 phenylalanine 641 to serine): 8 fold
- IC50 [3]: 17.5 ± 1.57 µM
- IC50 [4]: > 40 µM
- IC50 [5]: > 40 µM
- IC50 [6]: > 40 µM

Reference: paper PMC8991007, “Benzylic Dehydroxylation of Echinocandin Antifungal Drugs Restores Efficacy against Resistance Conferred by Mutated Glucan Synthase” (Journal of the American Chemical Society, 2022)
